Several values for one entry are separate records, joined by “and”; a condition that tells them apart may be missing. Equal entries are not always repeated. Entries after “also recorded” stand apart in the source; their conditions may differ. Where two headings read alike, the source gives them in different places. Each block holds one molecule with its values, some of them ahead of it.
Experiments:
[1] = molecular target: T1, dephosphorylated IRE1α (547–977) (Homo sapiens, UniProt O75460); test: FRET-based IRE1α RNase activity assay, dephosphorylated IRE1α; type: biochemical; settings: for inhibition at 50 µM: FRET assay at 50 μM, read-out: IRE1α inhibition%
T1 construct: Human IRE1α kinase and RNase domain (residues 547–977) was subcloned into pLIB plasmid; His tag (with TEV cleavage site) (N, cleaved yes); made in house; host or cells: Sf9 insect cells, baculovirus (Bac-to-Bac)
T1 sequence (O75460 547-977): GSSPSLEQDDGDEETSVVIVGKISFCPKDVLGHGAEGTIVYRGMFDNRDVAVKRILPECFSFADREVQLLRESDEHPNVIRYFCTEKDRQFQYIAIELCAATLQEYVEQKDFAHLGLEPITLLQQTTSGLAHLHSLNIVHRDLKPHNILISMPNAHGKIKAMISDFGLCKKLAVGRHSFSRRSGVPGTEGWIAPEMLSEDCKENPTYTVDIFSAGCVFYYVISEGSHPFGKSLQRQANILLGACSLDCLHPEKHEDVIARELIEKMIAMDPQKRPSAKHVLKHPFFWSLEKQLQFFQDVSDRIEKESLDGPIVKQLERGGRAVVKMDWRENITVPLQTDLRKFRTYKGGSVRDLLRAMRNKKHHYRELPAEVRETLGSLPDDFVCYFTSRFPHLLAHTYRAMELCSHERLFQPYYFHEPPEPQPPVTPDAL
Procedure: (§1) Human IRE1α kinase and RNase domain (residues 547–977) was subcloned into pLIB plasmid with a His tag and TEV cleavage site, and expressed using Bac-to-Bac expression system. The primers used are listed in Supplementary Table S3. The protein purification was performed following established procedures. Briefly, Sf9 cells were infected with baculovirus and incubated at 27 °C 110 rpm for 72 h. The cells were collected by centrifugation at 4000 × g for 15 min and the cell pellet was resuspended in lysis buffer (50 mM HEPES pH 7.5, 300 mM NaCl, 10% glycerol, 1 mM MgCl2, 1 mM TCEP, 5 mM imidazole), then supplemented with 1:10,000 benzonase (Sigma, E1014), 1 tablet/25 mL […]™ Protease Inhibitor Cocktail tablets (Sigma, S8830) and 1 mM PMSF before lysed by sonication at 4 °C. […] The protein elution was incubated with TEV protease to remove His tag at 4 °C overnight. Then the sample was diluted 1:6 in buffer (50 mM HEPES pH 7.5, 1 mM TCEP, 5% glycerol) and loaded onto a 5 mL pre-packaged Q HP anion exchange column (Cytiva, HiTrap Q HP) pre-equilibrated with QA buffer (50 mM HEPES pH 7.5, 50 mM NaCl, 1 mM TCEP, 5% glycerol). The unphosphorylated and phosphorylated protein was separated by eluting the protein with a very shallow gradient with 0-30% buffer QB (50 mM HEPES pH 7.5, 1 M NaCl, 1 mM TCEP, 5% glycerol) over 80 CV. Different peaks were collected separately and verified by LC-MS. The fully phosphorylated fraction was collected and further purified by size exclusion chromatography (Cytiva, HiLoad 16/600 Superdex 200 pg,) with SEC buffer (25 mM HEPES pH 7.5, 250 mM NaCl, 1 mM TCEP, 10% glycerol) and fractioned as monomeric peak. The rest protein fraction from the Q HP anion exchange column was incubated with Lambda protein phosphatase (New England BioLabs, P0753S) overnight at 4 °C, the dephosphorylation was confirmed by LC-MS. The unphosphorylated protein was further purified by size exclusion chromatography with the SEC buffer described above. The purified phosphorylated (p-IRE1α) and dephosphorylated (IRE1α) protein aliquots were stored at −80 °C for future usage.
The dual-labeled RNA substrate with a FAM at 5’ and the BHQ-1 at 3’ containing the XBP1 sequence (5′FAM-[…]-3′BHQ1) was purchased from Integrated DNA Technologies (IDT). The FRET-based IRE1α RNase activity assay was carried out in reaction buffer containing 20 mM HEPES pH 7.5, 50 mM KOAc, 1 mM MgOAc2, 1 mM DTT, 0.05% v/v TritonX-100, at a total reaction volume of 20 μL in a 384-well black plate (4514, Corning). For unphosphorylated IRE1α (IRE1α), a final concentration of 40 nM IRE1α protein and 100 nM RNA substrate was used. For phosphorylated IRE1 (p-IRE1α), a final concentration of 4 nM p-IRE1α protein and 200 nM RNA substrate was used. The indicated compound and IRE1α protein were incubated for 30 min at room temperature before the substrate was added to the reaction. The plate was then kinetically read over one hour at room temperature using a TECAN Spark plate reader. The measurement was carried out using the fluorescence top reading mode at the excitation wavelength of 485 nm and the emission wavelength of 535 nm with a 10 nm excitation and emission bandwidth. The linear part of the reaction curve was adopted and fitted with sample linear regression to obtain the slope, and the slope was adopted to reflect the reaction rate. The inhibition % was calculated by using the equation: inhibition% = 100 × (slope of DMSO control – slope of the sample)/(slope of DMSO control – slope of blank control), DMSO control: DMSO with protein and RNA substrate; Blank control: DMSO with RNA substrate. The IC50 values were calculated using the concentration-response model in GraphPad Prism 9. […]

[2] = molecular target: T2, phosphorylated IRE1α (p-IRE1α) (Homo sapiens, UniProt O75460); test: FRET-based IRE1α RNase activity assay, phosphorylated IRE1α; type: biochemical; settings: for inhibition at 50 µM: FRET assay at 50 μM, read-out: p-IRE1α inhibition%
T2 construct: Human IRE1α kinase and RNase domain (residues 547–977) was subcloned into pLIB plasmid; His tag (with TEV cleavage site) (N, cleaved yes); made in house; host or cells: Sf9 insect cells, baculovirus (Bac-to-Bac)
T2 sequence (O75460 547-977): as above
Procedure: as §1
The dual-labeled RNA substrate with a FAM at 5’ and the BHQ-1 at 3’ containing the XBP1 sequence (5′FAM-[…]-3′BHQ1) was purchased from Integrated DNA Technologies (IDT). The FRET-based IRE1α RNase activity assay was carried out in reaction buffer containing 20 mM HEPES pH 7.5, 50 mM KOAc, 1 mM MgOAc2, 1 mM DTT, 0.05% v/v TritonX-100, at a total reaction volume of 20 μL in a 384-well black plate (4514, Corning). For unphosphorylated IRE1α (IRE1α), a final concentration of 40 nM IRE1α protein and 100 nM RNA substrate was used. For phosphorylated IRE1 (p-IRE1α), a final concentration of 4 nM p-IRE1α protein and 200 nM RNA substrate was used. The indicated compound and IRE1α protein were incubated for 30 min at room temperature before the substrate was added to the reaction. The plate was then kinetically read over one hour at room temperature using a TECAN Spark plate reader. The measurement was carried out using the fluorescence top reading mode at the excitation wavelength of 485 nm and the emission wavelength of 535 nm with a 10 nm excitation and emission bandwidth. The linear part of the reaction curve was adopted and fitted with sample linear regression to obtain the slope, and the slope was adopted to reflect the reaction rate. The inhibition % was calculated by using the equation: inhibition% = 100 × (slope of DMSO control – slope of the sample)/(slope of DMSO control – slope of blank control), DMSO control: DMSO with protein and RNA substrate; Blank control: DMSO with RNA substrate. The IC50 values were calculated using the concentration-response model in GraphPad Prism 9.

[3] = IRE1a, individual replicates (n1-n4), Supplementary Fig. 2b, 2c, read-out: IC50
[4] = IRE1a, mean, Supplementary Fig. 2b, 2c, read-out: IC50, mean
[5] = p-IRE1a, individual replicates (n1-n3), Supplementary Fig. 2b, 2c, read-out: IC50
[6] = p-IRE1a, mean, Supplementary Fig. 2b, 2c, read-out: IC50, mean
[7] = FRET assay, RNase activity, mean (± SEM), read-out: IRE1α IC50
[8] = FRET assay, source data, unit from Fig. 3 / sheet Fig. 2b, read-out: IRE1a IC50, individual replicates (n1-n4)
[9] = FRET assay, RNase activity, mean (± SEM), read-out: p-IRE1α IC50
[10] = FRET assay, source data, unit from Fig. 3, read-out: p-IRE1a IC50, individual replicates (n1-n4)
[11] = FRET assay, RNase activity, mean (± SEM)

SMILES: Cc1c(CCC(=O)O)c2cc(Br)ccc2n1Cc1ccccc1 [IA164]
- effect on IRE1α RNase activity in the FRET assay [1]: did not show activity; also recorded: complete loss of activity
- inhibition at 5.55556 µM ([1]; IRE1a, 5.55556 μM): 11.3%
- inhibition(%) ([1]; IRE1a, 5.55556 μM): 18.332% and 22.563% and 19.929%
- effect on p-IRE1α RNase activity in the FRET assay [2]: did not show activity
- inhibition(%) ([2]; p-IRE1a, 0.000847 μM): -3.310% and -10.444% and -6.973% and -11.312%
- inhibition(%) ([2]; p-IRE1a, 0.00254 μM): -11.263% and -6.154% and -5.913% and -3.985%
- inhibition(%) ([2]; p-IRE1a, 0.007621 μM): -3.888% and -1.575% and -3.262% and -6.925%
- inhibition(%) ([2]; p-IRE1a, 0.022862 μM): -9.528% and -12.854% and -7.504% and -7.552%
- inhibition(%) ([2]; p-IRE1a, 0.205761 μM): -14.011% and -13.481% and -9.046% and -6.299%
- inhibition(%) ([2]; p-IRE1a, 0.617284 μM): -12.951% and -9.625% and -7.070% and -4.226%
- inhibition(%) ([2]; p-IRE1a, 1.85185 μM): -7.504% and -4.708% and -6.877% and -5.527%
- inhibition(%) ([2]; p-IRE1a, 5.55556 μM): -7.793% and -8.660% and -17.192% and -15.216%

SMILES: COc1ccc2c(c1)c(CCC(=O)O)c(C)n2C(=O)C12CCC(C)(C(=O)O1)C2(C)C (stereo not shown) [IA92]
- IRE1α IC50 [1, 11]: IC₅₀ not reached
- IC50 [1, 7]: > 20 µM
- p-IRE1α IC50 [2, 11]: IC₅₀ not reached
- IC50 [2, 9]: > 20 µM

SMILES: Cc1c(CCC(=O)O)c2cc(F)ccc2n1C(=O)c1cccs1 [IA48]
- IC50 [1, 3]: 0.542 µM and 0.383 µM and 0.121 µM
- IC50 [1, 4]: 0.35 µM
- IC50 [2, 5]: 1.07 µM and 0.419 µM and 0.737 µM
- IC50 [2, 6]: 0.74 µM

SMILES: COc1ccc2c(c1)c(CCC(=O)O)c(C)n2C(=O)N(C)C [IA76]
- IRE1α IC50 [1, 11]: IC₅₀ not reached
- IC50 [1, 7]: > 20 µM
- p-IRE1α IC50 [2, 11]: IC₅₀ not reached
- IC50 [2, 9]: > 20 µM

SMILES: COc1ccc2c(c1)c(CC(=O)OC(C)C)c(C)n2C(=O)c1ccc(Cl)cc1 [cms07]
- inhibition at 50 µM ([1]; mean (± SEM)): < 30%
- inhibition at 50 µM ([2]; mean (± SEM)): < 30%

SMILES: COc1ccc2c(c1)c(Cc1ccccc1)c(C)n2C(=O)c1ccc(Cl)cc1 [cms09]
- inhibition at 50 µM ([1]; mean (± SEM)): < 30%
- inhibition at 50 µM ([2]; mean (± SEM)): < 30%

SMILES: CCOC(=O)Cc1c(C)n(C(=O)c2ccc(Cl)cc2)c2ccc(OC)cc12 [cms05]
- inhibition at 50 µM ([1]; mean (± SEM)): < 30%
- inhibition at 50 µM ([2]; mean (± SEM)): < 30%

Next, values leading:

- IC50 [1, 3]: 2.32 µM and 4.34 µM and 2.12 µM
- IC50 [1, 4]: 2.93 µM
- IC50 [2, 5]: 4.9 µM and 0.768 µM
- IC50 [2, 6]: 2.84 µM
SMILES: Cc1c(CCC(=O)O)c2ccccc2n1C(=O)c1cccc(C#N)c1 [IA41]

- IC50 [1, 7]: 0.86 µM
- IC50 [1, 8]: 1.18 µM and 0.924 µM and 0.476 µM
- IC50 [2, 9]: 1.15 µM
- IC50 [2, 10]: 1.47 µM and 1.15 µM and 0.817 µM
SMILES: COc1ccc2c(c1)c(CCC(=O)O)c(C)n2C(=O)c1ccc(-c2ccccc2)cc1 [IA75]

- IC50 [1, 7]: 6.22 µM and 6.23 µM
- IC50 [1, 8]: 5.53 µM and 6.93 µM
- IC50 [2, 9]: 28.3 µM
- IC50 [2, 10]: 34.9 µM and 21.7 µM
SMILES: Cc1c(CCC(=O)O)c2cc(-c3ccccc3C#N)ccc2n1C(=O)c1ccccc1 [IA159]

- IC50 [1, 7]: 12.1 µM
- IC50 [1, 8]: 10.8 µM and 12.5 µM and 13 µM
- IC50 [2, 9]: 43.1 µM
- IC50 [2, 10]: 46.9 µM and 49.8 µM and 32.5 µM
SMILES: Cc1c(CCC(=O)O)c2cc(-c3ccc(C(N)=O)cc3)ccc2n1C(=O)c1ccccc1 [IA152]
